# Experimental data as given in patent publication US9586952B2, “Polycyclic estrogen receptor modulators and uses thereof” (SERAGON PHARMACEUTICALS, INC., priority 2013, dated 2017).
# Columns and labels:
# MCF-7 cells = test: MCF7 Viability Assay (Breast Cancer Cell Viability Assay); assay type: cell-based; conditions: 5 days' compound exposure, CellTiter-Glo; for IC50: Homo sapiens, MCF7, 120 h
# Description: MCF-7 cells were adjusted to a concentration of 20,000 cells per mL in RPMI containing 10% FBS and 20 mM HEPES. 16 microliters of the cell suspension (320 cells) was added to each well of a 384 well plate, and the cells were incubated overnight to allow the cells to adhere. The following day an eleven point, serial semilog dilution of each compound was added to the cells in 16 μL at a final concentration ranging from 0.3-0.000003 μM. After 5 days' compound exposure, 16 μL of CellTiter-GLo (Promega, Madison Wis.) was added to the cells, and the relative luminescence units (RLUs) of each well were determined. CellTiter-Glo added to 32 μL of medium without cells was used to obtain a background value. The Percent viability of each sample was determined as follows: (RLU sample-RLU background/RLU untreated cells-RLU background)×100=% viability.
# ER-α = biological target: T1, ER-α (Homo sapiens, UniProt P03372); test: Breast Cancer Cell ER-α In Cell Western Assay (SP1); assay type: cell-based; conditions: MCF-7 cells, 4 or 24 hr post compound addition, SP1 antibody; for Emax: MCF7, read-out: ER-α In Cell Western Assay (SP1) Max Response; for DC50: read-out: ER-α In Cell Western Assay (SP1) IC50
# T1 construct: endogenous in cells; host or cells: MCF-7
# T1 sequence (P03372 1-595): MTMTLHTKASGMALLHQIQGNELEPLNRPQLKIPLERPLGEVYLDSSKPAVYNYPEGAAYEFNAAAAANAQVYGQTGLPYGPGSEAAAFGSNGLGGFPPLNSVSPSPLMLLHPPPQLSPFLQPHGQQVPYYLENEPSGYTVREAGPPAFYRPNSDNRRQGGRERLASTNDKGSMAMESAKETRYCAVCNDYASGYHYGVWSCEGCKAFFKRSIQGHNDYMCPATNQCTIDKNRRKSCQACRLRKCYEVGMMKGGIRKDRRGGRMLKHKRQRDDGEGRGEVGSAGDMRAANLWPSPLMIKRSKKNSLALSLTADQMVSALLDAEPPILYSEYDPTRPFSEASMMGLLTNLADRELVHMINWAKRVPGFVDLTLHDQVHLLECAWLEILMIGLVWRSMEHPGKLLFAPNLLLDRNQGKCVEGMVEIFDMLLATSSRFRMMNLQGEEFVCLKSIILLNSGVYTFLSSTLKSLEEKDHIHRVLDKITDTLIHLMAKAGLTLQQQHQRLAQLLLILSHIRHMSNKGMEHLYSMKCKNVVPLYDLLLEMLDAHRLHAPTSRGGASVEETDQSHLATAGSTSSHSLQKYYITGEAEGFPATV
# Description: MCF-7 cells were adjusted to a concentration of 200,000 cells per mL in RPMI containing 10% charcoal-stripped FBS and 20 mM HEPES. 16 microliters of the cell suspension (3200 cells) was added to each well of a poly-D-lysine 384 well plate, and the cells were incubated overnight to allow the cells to adhere. The following day an eleven point, serial semilog dilution of each compound was added to the cells in 16 μL at a final concentration ranging from 0.3-0.000003 μM. At 4 or 24 hr post compound addition, the cells were fixed (10% formalin in PBS) for 20 minutes. Cells were permeablized in PBS 0.1% Triton and blocked with LICOR blocking buffer (50 μl/well, 90′). The wells were then incubated overnight at 4° C. with SP1 rabbit monoclonal Ab (Thermo Scientific) diluted 1:1000 in LICOR blocking buffer/0.1% Tween-20. Wells which were treated with blocking buffer with Tween but no antibody were used as a background control. Wells were washed with 0.1% Tween-20/PBS and then incubated in goat anti-rabbit IRDye™ 800 CW (LICOR Inc.; 1:10000) and DRAQ5 DNA dye (1:2000 for 2 mM stock) diluted in LICOR blocking buffer containing 0.1% Tween-20 and 0.01% SDS for 60 minutes. Cells were washed (50 μl/well, 5′ each) in 0.1% Tween-20/PBS. Plates were scanned on a LICOR Odyssey infrared imaging system. Integrated intensities in the 800 nm channel and 700 nm channel were measured to determine levels of ER and DNA respectively. Percent ER levels were determined as follows: (Integrated intensity 800 nm sample/integrated intensity 700 nm sample)/(Integrated intensity 800 nm untreated cells/integrated intensity 700 nm untreated cells)×100=% ER levels.
Structure (SMILES),IC50 (MCF-7 cells) [nM],Emax (ER-α) [%],DC50 (ER-α) [nM],MCF7 Viability Assay Max Response (MCF-7 cells)
"N#Cc1ccc(/C(=C(\c2ccc(/C=C/C(=O)O)cc2)c2ccc(-c3cn[nH]c3)cc2)C2CCC2)c(Cl)c1 [Example 3, (E)-3-(4-((E)-1-(4-(1H-Pyrazol-4-yl)phenyl)-2-(2-chloro-4-cyanophenyl)-2-cyclobutylvinyl)phenyl) acrylic acid]",≤ 100,≥ 40,≤ 100,++ (++ = a single % value ≧ 40%)
"CC/C(=C(/c1ccc(/C=C/C(=O)O)cc1)c1cccc(-c2ccn[nH]2)c1)c1ccccc1 [Example 7, (E)-3-(4-((E)-1-(3-(1H-Pyrazol-5-yl)phenyl)-2-phenylbut-1-en-1-yl)phenyl)acrylic acid]",> 100,≥ 40,> 100,+ (+ = a single % value < 40%)
"CC/C(=C(/c1ccc(/C=C/C(=O)O)cc1)c1ccc(-c2nccs2)cc1)c1ccccc1 [Example 8, (E)-3-(4-((E)-2-Phenyl-1-(4-(thiazol-2-yl)phenyl)but-1-en-1-yl)phenyl)acrylic acid]",> 100,≥ 40,≤ 100,++ (++ = a single % value ≧ 40%)
"CC/C(=C(/c1ccc(/C=C/C(=O)O)cc1)c1ccc(-c2cscn2)cc1)c1ccccc1 [Example 10, (E)-3-(4-((E)-2-Phenyl-1-(4-(thiazol-4-yl)phenyl)but-1-en-1-yl)phenyl)acrylic acid]",> 100,≥ 40,≤ 100,++ (++ = a single % value ≧ 40%)
"CC/C(=C(/c1ccc(/C=C/C(=O)O)cc1)c1cccc(-c2nccs2)c1)c1ccccc1 [Example 11, (E)-3-(4-((E)-2-Phenyl-1-(3-(thiazol-2-yl)phenyl)but-1-en-1-yl)phenyl)acrylic acid]",> 100,< 40,> 100,+ (+ = a single % value < 40%)
"CC/C(=C(/c1ccc(/C=C/C(=O)O)cc1)c1cccc(-c2cscn2)c1)c1ccccc1 [Example 12, (E)-3-(4-((E)-2-Phenyl-1-(3-(thiazol-4-yl)phenyl)but-1-en-1-yl)phenyl)acrylic acid]",> 100,< 40,> 100,+ (+ = a single % value < 40%)
"CC/C(=C(/c1ccc(/C=C/C(=O)O)cc1)c1ccc(-c2cccnc2)cc1)c1ccccc1 [Example 14, (E)-3-(4-((E)-2-Phenyl-1-(4-(pyridin-3-yl)phenyl)but-1-en-1-yl)phenyl)acrylic acid]",> 100,≥ 40,≤ 100,++ (++ = a single % value ≧ 40%)
"CC/C(=C(/c1ccc(/C=C/C(=O)O)cc1)c1ccc(-c2cnsc2)cc1)c1ccccc1 [Example 15, (E)-3-(4-((E)-1-(4-(Isothiazol-4-yl)phenyl)-2-phenylbut-1-en-1-yl)phenyl)acrylic acid]",> 100,≥ 40,≤ 100,++ (++ = a single % value ≧ 40%)
"CC/C(=C(/c1ccc(/C=C/C(=O)O)cc1)c1ccc(-n2ccnc2)cc1)c1ccccc1 [Example 17, (E)-3-(4-((E)-1-(4-(1H-Imidazol-1-yl)phenyl)-2-phenylbut-1-en-1-yl)phenyl)acrylic acid]",> 100,≥ 40,> 100,++ (++ = a single % value ≧ 40%)

# Further lines, with some results ahead:
IC50 (MCF-7 cells) [nM],Emax (ER-α) [%],DC50 (ER-α) [nM],Structure (SMILES),MCF7 Viability Assay Max Response (MCF-7 cells)
≤ 100,≥ 40,≤ 100,"O=C(O)/C=C/c1ccc(/C(=C(\c2ccccc2)C2CCC2)c2ccc(-c3cn[nH]c3)cc2)cc1 [Example 1, (E)-3-(4-((E)-1-(4-(1H-Pyrazol-4-yl)phenyl)-2-cyclobutyl-2-phenylvinyl)phenyl)acrylic acid]",++ (++ = a single % value ≧ 40%)
≤ 100,≥ 40,≤ 100,"CC/C(=C(/c1ccc(/C=C/C(=O)O)cc1)c1ccc(-c2cncs2)cc1)c1ccc(F)cc1Cl [Example 2, (E)-3-(4-((E)-2-(2-Chloro-4-fluorophenyl)-1-(4-(thiazol-5-yl)phenyl)but-1-en-1-yl)phenyl)acrylic acid]",++ (++ = a single % value ≧ 40%)
≤ 100,≥ 40,≤ 100,"COc1ccc(/C(=C(\c2ccc(/C=C/C(=O)O)cc2)c2ccc(N3CCOCC3)cc2)C2CCC2)c(Cl)c1 [Example 4, (E)-3-(4-((E)-2-(2-Chloro-4-methoxyphenyl)-2-cyclobutyl-1-(4-morpholinophenyl)vinyl)phenyl)acrylic acid]",++ (++ = a single % value ≧ 40%)
≤ 100,≥ 40,≤ 100,"N#Cc1ccc(/C(=C(\c2ccc(/C=C/C(=O)O)cc2)c2ccc(-c3cncs3)cc2)C2CCC2)c(Cl)c1 [Example 5, (E)-3-(4-((E)-2-(2-Chloro-4-cyanophenyl)-2-cyclobutyl-1-(4-(thiazol-5-yl)phenyl)vinyl)phenyl)acrylic acid]",++ (++ = a single % value ≧ 40%)
> 100,≥ 40,≤ 100,"CC/C(=C(/c1ccc(/C=C/C(=O)O)cc1)c1ccc(-c2ccn[nH]2)cc1)c1ccccc1 [Example 6, (E)-3-(4-((E)-1-(4-(1H-Pyrazol-5-yl)phenyl)-2-phenylbut-1-en-1-yl)phenyl)acrylic acid]",++ (++ = a single % value ≧ 40%)
≤ 100,≥ 40,≤ 100,"CC/C(=C(/c1ccc(/C=C/C(=O)O)cc1)c1ccc(-c2cncs2)cc1)c1ccccc1 [Example 9, (E)-3-(4-((E)-2-Phenyl-1-(4-(thiazol-5-yl)phenyl)but-1-en-1-yl)phenyl)acrylic acid]",++ (++ = a single % value ≧ 40%)
≤ 100,≥ 40,≤ 100,"O=C(O)/C=C/c1ccc(/C(=C(\c2ccccc2)C2CCC2)c2ccc(-c3cncs3)cc2)cc1 [Example 13, (E)-3-(4-((E)-2-Cyclobutyl-2-phenyl-1-(4-(thiazol-5-yl)phenyl)vinyl)phenyl)acrylic acid]",++ (++ = a single % value ≧ 40%)
≤ 100,≥ 40,≤ 100,"CC/C(=C(/c1ccc(/C=C/C(=O)O)cc1)c1ccc(N2CCOCC2)cc1)c1ccccc1 [Example 16, (E)-3-(4-((E)-1-(4-Morpholinophenyl)-2-phenylbut-1-en-1-yl)phenyl)acrylic acid]",++ (++ = a single % value ≧ 40%)
≤ 100,≥ 40,≤ 100,"CC/C(=C(/c1ccc(/C=C/C(=O)O)cc1)c1ccc(-c2cnco2)cc1)c1ccccc1 [Example 18, (E)-3-(4-((E)-1-(4-(Oxazol-5-yl)phenyl)-2-phenylbut-1-en-1-yl)phenyl)acrylic acid]",++ (++ = a single % value ≧ 40%)
